Columns and labels:
ectopic bone formation = experiment: Surgical mouse model of heterotopic ossification (rhBMP2-soaked collagen disk), micro-CT; assay type: in vivo, CD-1 mouse; conditions: for Mean bone volume (mm^3) / percent change in HO volume from vehicle mean (%): oral gavage, 13 days, Day 14
Protocol: Heterotopic ossification (HO) driven by Bone Morphogenetic Protein (BMP) signaling has been used as a surrogate model for testing the effectiveness of drugs for treating Fibrodysplasia Ossificans Progressiva (FOP) (see, for example, Shimono K., et al. (2011). Nat Med 17, 454-460.). Collagen disks of 1mm in diameter were punched from a thin collagen foam matrix (Avitene™ Ultrafoam™ Collagen Hemostat product #1050050 lot #WBDP0038, from BD, Franklin Lakes, NJ, USA). Disks were impregnated with 1µg total of recombinant human BMP-2 (GenScript, Piscataway, NJ, USA, catalog #Z02913, lot #P50031712) on the day of surgery (5µl of 200ng/µL BMP-2, reconstituted in 20mM acetic acid solution). The rhBMP2-soaked collagen disk was surgically implanted into a small pocket made in the left gastrocnemius muscle of a 6-8 week-old male CD-1 mouse. Beginning on the day following surgery, mice were administered varying doses of compound 1 by oral gavage once daily (QD) or twice daily (every 12h; BID) for 13 days. Doses administered were: vehicle (Corn oil, QD (5M) and BID (3M) dosing or 3% DMSO in Corn oil (2M)), compound 1 18 mg/kg BID, 18 mg/kg QD, 6 mg/kg BID, 4.5 mg/kg BID, and 2 mg/kg BID (6M per group). Palovarotene high and low doses were used as comparators (1.76 mg/kg (4M) and 0.88 mg/kg QD (6M)). The palovarotene high and low doses were selected based on a study for palovarotene (Inubushi, T., et al. (2018). "Palovarotene Inhibits Osteochondroma Formation in a Mouse Model of Multiple Hereditary Exostoses." J Bone Miner Res 33(4): 658-666.), using oral treatment of mice. The inventors also verified the dose selection based on pharmacokinetic (PK) data generated in-house for palovarotene IP (intraperitoneal) and PO (oral) treatment by using the doses for IP treatment from Lees-Shepard, J. B., et al. (2018).
At the study endpoint (Day 14: 16-30 hours after final compound treatment) left hindlimbs were removed and submitted to micro-CT (micro-computed tomography) imaging. Using this preclinical surgical model, the amount of resulting ectopic bone formation after 14 days was visualized for each of the treatment groups (Figure 6). The highly enhancing regions seen within the gastrocnemius muscle corresponded to the amount of ectopic bone formation generated at the site of collagen disk implantation, following 14 days of vehicle or drug treatment.
The hindlimbs obtained in Example 6 above were submitted to micro-CT imaging. CT images were acquired using a VECTor^4CT pre-clinical scanner (MILabs B.V., Utrecht, Netherlands) equipped with a cone beam X-ray CT system. Scans were carried out with an acceleration voltage of 50 kVp and an X-ray tube current of 430 µA in accurate focus mode to obtain 3600 projections over a 360° scan. With a 40 ms exposure time per step, the total scan procedure took about 5 minutes with an estimated radiation dose of 3077 mGy. CT images were consequently processed using MILabs reconstruction software implementing a voxel size of 20 µm and a Hann projection filter of 25 µm to generate 3-dimensional CT images. For quantification, CT images were converted to DICOM® files using PMOD 3.9 software (PMOD Technologies Ltd., Zurich, Switzerland) for rendering using RadiAnt DICOM Viewer 4.2 software (Medixant, Poznań, Poland). The region-of-interest for all hindlimbs, reconstructed from DICOM files, was defined by outlining sites of ectopic ossification. Analysis of total ectopic bone volume was conducted via automated processes using the AnalyzePro software with the Bone Microarchitecture Analysis (BMA) add-on (AnalyzeDirect, Overland Park, Kansas). This software generates bone volume measurements from the defined area, as described by Bouxsein et al (2010). Journal of Bone and Mineral Research, 25(7), 1468-1486. Using this preclinical surgical model, the ability of compound 1 to inhibit HO (percentage from vehicle), as compared to palovarotene, was assessed and is shown in Figure 7 and in Table 1 below.

RAR = RAR transcriptional activation assay (RARE-luc MCF-7 cells); assay type: cell-based; conditions: 0.1 nM to 10 µM, 24 hours of treatment; Figure 5
Text: This retinoid transcriptional activity assay measures the ability of a test compound to induce expression of a RA-sensitive reporter construct. This assay utilizes MCF-7 cells stably transduced with a gene construct comprising 4 tandem RA-response elements linked to a promoter driving transcriptional expression of the firefly luciferase encoding mRNA (RARE-luc). This construct serves as a sensitive reporter of retinoid-like activity.
RARE-luc transduced MCF-7 cells were maintained in a RPMI-1640 medium containing 10% FBS. Cells were grown in 96-well plates, and treated with the test compound diluted in DMSO in duplicate at 0.1 nM, 1 nM, 10 nM, 100 nM, 1 µM and 10 µM final concentrations. As a positive control for reporter activation, cells were also treated with RA diluted in DMSO at the same concentrations. DMSO treatment alone served as a negative control. After 24 hours of treatment, cells were harvested lysis buffer (Molecular Devices, San Jose, USA) and luciferase activity in cell lysates were read using a luminometer.

Compound: CC(C)(C)c1cccc(-c2cc3cc(/C=C/C(=O)O)ccc3[nH]2)c1 [Compound 1, (E)-3-(2-(3-(tert-butyl)phenyl)-1H-indol-5-yl)acrylic acid]
- Mean bone volume (mm^3) (ectopic bone formation; 2mg/kg BID): 0.920 mm^3
- percent change in HO volume from vehicle mean (%) (ectopic bone formation; 2mg/kg BID): -52.5%
- Mean bone volume (mm^3) (ectopic bone formation; 4.5mg/kg BID): 1.205 mm^3
- percent change in HO volume from vehicle mean (%) (ectopic bone formation; 4.5mg/kg BID): -37.8%
- Mean bone volume (mm^3) (ectopic bone formation; 6mg/kg BID): 0.212 mm^3
- percent change in HO volume from vehicle mean (%) (ectopic bone formation; 6mg/kg BID): -89.1%
- Mean bone volume (mm^3) (ectopic bone formation; 18mg/kg BID): 0.035 mm^3
- percent change in HO volume from vehicle mean (%) (ectopic bone formation; 18mg/kg BID): -98.2%
- Mean bone volume (mm^3) (ectopic bone formation; 18mg/kg QD): 0.436 mm^3
- percent change in HO volume from vehicle mean (%) (ectopic bone formation; 18mg/kg QD): -77.5%
- ectopic bone formation (ectopic bone formation; 2 to 18 mg/kg, versus vehicle, 14 days): dose-dependent decrease in ectopic bone formation
- luciferase activity (RAR): did not induce luciferase activity significantly

Source: EP4470536A1, “COMPOUND FOR USE IN TREATING FIBRODYSPLASIA OSSIFICANS PROGRESSIVA (FOP)” (Queen's University At Kingston, priority 2023, dated 2024)
